Consider five compounds from BindingDB's records for doi:10.1002/cmdc.200500008 (Philipps-Universität Marburg, 2006).

pIC50: −log10 of the molar value. Some results are limits rather than exact numbers.

One experiment addresses Gag-Pol polyprotein (Human immunodeficiency virus type 1 group M subtype B (isolate BRU/LAI), UniProt P03367). In words: Enzymatic Assay. The following applies: pH 5.5. The method, then: Binding constants for inhibition of HIV protease were determined as previously described.
A further experiment has as its target Cathepsin D (Homo sapiens, UniProt P07339). In words: Enzymatic Assay. The following applies: pH 5.5.

Cathepsin D, sequence (P07339 65-162 limits assumed): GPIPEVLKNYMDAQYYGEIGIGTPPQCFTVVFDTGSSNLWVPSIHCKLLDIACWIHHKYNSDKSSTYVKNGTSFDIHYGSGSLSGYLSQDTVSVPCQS
Cathepsin D, sequence (P07339 169-412 limits assumed): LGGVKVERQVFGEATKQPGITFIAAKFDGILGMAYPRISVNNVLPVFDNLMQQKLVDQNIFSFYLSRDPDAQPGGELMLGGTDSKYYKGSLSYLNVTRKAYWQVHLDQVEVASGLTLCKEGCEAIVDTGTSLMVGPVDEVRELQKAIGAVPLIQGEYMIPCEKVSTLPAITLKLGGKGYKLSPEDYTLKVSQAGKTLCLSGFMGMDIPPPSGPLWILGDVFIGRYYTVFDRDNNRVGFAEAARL

In the case of `Cc1cccc(C)c1OCC(=O)N(Cc1ccccc1)CC1CNC[C@H]1CN(CC(C)C)S(=O)(=O)c1ccccc1` (stereo not given in full) [Aspartyl protease inhibitor, 13], the results for the negative-log IC50 (pIC50) on Gag-Pol polyprotein and at Cathepsin D were 5.66 and < 4.40, respectively.

Regarding `Cc1cccc(C)c1OCC(=O)N(Cc1ccccc1)CC1CNC[C@H]1CN(CC(C)C)S(=O)(=O)c1ccc(N)cc1` (stereo not given in full) [Aspartyl protease inhibitor, 14], the values for the pIC50 at Gag-Pol polyprotein and on Cathepsin D were 5.48 and < 4.40, respectively.

On to `Cc1ccc(S(=O)(=O)N(CC(C)C)C[C@@H]2CNCC2CN(Cc2ccccc2)C(=O)COc2c(C)cccc2C)cc1` (stereo not given in full) [Aspartyl protease inhibitor, 15], for which the negative-log IC50 (pIC50) (commonly the negative decadic logarithm of the IC50, by convention in mol/L) on Gag-Pol polyprotein was 4.92; on Cathepsin D, < 4.40.

On to `COc1cc(Br)c(OC(=O)N(Cc2ccccc2)CC2CNC[C@H]2CN(CCc2ccc(Cl)cc2Cl)C(=O)CCCc2ccccc2)cc1OC` (stereo not given in full) [Aspartyl protease inhibitor, 16], for which the results for the pIC50 against Gag-Pol polyprotein and at Cathepsin D were 4.70 and 5.98, respectively.

Turning to `COc1cc(Br)c(OC(=O)N(Cc2ccccc2)CC2CNC[C@H]2CN(CCc2ccc(Cl)cc2Cl)C(=O)CCN2C(=O)c3ccccc3C2=O)cc1OC` (stereo not given in full) [Aspartyl protease inhibitor, 17], the pIC50 is 4.66 against Gag-Pol polyprotein and 6.24 at Cathepsin D.
